# From patent publication US20260232817A1, “Activatable Drug Conjugates and Therapeutic Applications Thereof” (California Institute of Technology, priority 2023, published 2026)
# How the values were obtained:
# [1] = system: aortic aneurysm cross-sections; experiment: Histology and IHC staining of aneurysm cross-sections after MB PDT at AAA induction; type: in vivo, mice
# Source text: The formation and progression of AAA can be characterized by the degradation of the extracellular matrix (ECM) and the concurrent infiltration of immune cells into the aortic wall. To assess if MB PDT affects the extracellular matrix (ECM) of the aortic aneurysms, cross-sections of the aneurysms of the above mice which have undergone AAA induction and concurrently treated with MB PDT and the respective controls were stained with Verhoeff-Van Gieson (VVG) for elastin, Massons Trichrome for collagen and CD3 antibody for T-cells and CD68 antibody for macrophages for immune cell infiltration (FIG. 2A). […] Similarly, a compensatory effect of collagen expression into the elastin layer was observed (pointed by arrows) after PDT treatment compared to both vehicle-treated positive controls and sham controls. […] To assess if T-cells and macrophage infiltration is modulated in aneurysms upon treatment with MB PDT, the aneurysm cross-sections were stained for CD3 and CD68, markers for T-cells and macrophages, respectively. CD3 and CD68 staining were reduced after MB PDT treatment compared to vehicle treated controls (FIG. 2A). […] To confirm if there is an improvement in elastin degradation, clinical scoring as per an established protocol was performed by blinded investigators. […] To assess if this benefit on elastin degradation and immune cell infiltration was due to any systemic decrease in circulating cytokine levels known to be associated with aneurysm growth, cytokines such as IL-1B, IL-6 and IL-10, serum cytokine levels were measured.
# Fresh tissue was fixed in 10% neutral buffered formalin (Azer Scientific, PFNBF-90) for 24 hours before being transferred to 70% EtOH. […] After paraffin embedding, sections were cut at 5 um for staining (AML Laboratories). Sections were then stained with H&E (VWR 95057-844, 95057-848), Van Gieson (Statlab Medical Products, KTVELLT), and Masson's Trichrome (CP Lab Chemicals, TRM-500). For IHC, standard immunohistochemistry procedures for 5 μm-thick aorta sections were used. In brief, after deparaffinization, endogenous peroxidase activity was quenched by placing the slides into 3% hydrogen peroxide (H2O2) for 10 min. Sections were immersed in preheated 10 mM citric acid (VWR., Radnor, PA., USA), pH 6.0, for 30 min and cooled in cold water. Sections were then blocked in 5% goat serum (Vector Laboratories, Burlingame, Calif., USA) for 20 min before being incubated overnight at 4° C. in a solution of rabbit anti-CD3 (0.4 μg/ml; ab5690; Abcam, Cambridge, MA., USA) antibody, rabbit anti-CD31 (ERP1729; 0.4 μg/ml; ab182981; Abcam) antibody, rabbit alpha smooth muscle Actin (SMA; 0.067 μg/ml; ab5694; Abcam), rabbit anti-CD68 (ERP23917; 2.0 μg/ml; ab283667; Abcam), and rabbit anti-Interleukin-1 receptor type 1 (IL1R1; 2.0 μg/ml; PAS-98766; Thermo Fisher, Eugene, OR., USA) in PBS. The next day, the sections were exposed to the biotinylated biotinylated goat-anti-rabbit IgG secondary antibody (15 μg/ml; Vector Laboratories) in PBS for 1 h followed by avidin-biotin complex for 1 h (1:200, ABC; Vector Laboratories). The reactions were visualized with 3,3′-diaminobenzidine (Millipore-Sigma) for 10 min and counterstained with Gill's Haematoxylin (Thermo Scientific) for 30 seconds. Finally, the sections were dehydrated, cleared in xylene and cover slipped. […]
# For quantification of elastin using Van Gieson, an elastin scoring guide was used. […]
# Recombinant Tropoelastin = target: T1, Recombinant Tropoelastin (Homo sapiens, UniProt P15502); experiment: CML levels in recombinant tropoelastin treated with MB PDT; type: biochemical; conditions: MB PDT vs untreated tropoelastin and methylene blue without light
# T1 sequence (P15502 27-786): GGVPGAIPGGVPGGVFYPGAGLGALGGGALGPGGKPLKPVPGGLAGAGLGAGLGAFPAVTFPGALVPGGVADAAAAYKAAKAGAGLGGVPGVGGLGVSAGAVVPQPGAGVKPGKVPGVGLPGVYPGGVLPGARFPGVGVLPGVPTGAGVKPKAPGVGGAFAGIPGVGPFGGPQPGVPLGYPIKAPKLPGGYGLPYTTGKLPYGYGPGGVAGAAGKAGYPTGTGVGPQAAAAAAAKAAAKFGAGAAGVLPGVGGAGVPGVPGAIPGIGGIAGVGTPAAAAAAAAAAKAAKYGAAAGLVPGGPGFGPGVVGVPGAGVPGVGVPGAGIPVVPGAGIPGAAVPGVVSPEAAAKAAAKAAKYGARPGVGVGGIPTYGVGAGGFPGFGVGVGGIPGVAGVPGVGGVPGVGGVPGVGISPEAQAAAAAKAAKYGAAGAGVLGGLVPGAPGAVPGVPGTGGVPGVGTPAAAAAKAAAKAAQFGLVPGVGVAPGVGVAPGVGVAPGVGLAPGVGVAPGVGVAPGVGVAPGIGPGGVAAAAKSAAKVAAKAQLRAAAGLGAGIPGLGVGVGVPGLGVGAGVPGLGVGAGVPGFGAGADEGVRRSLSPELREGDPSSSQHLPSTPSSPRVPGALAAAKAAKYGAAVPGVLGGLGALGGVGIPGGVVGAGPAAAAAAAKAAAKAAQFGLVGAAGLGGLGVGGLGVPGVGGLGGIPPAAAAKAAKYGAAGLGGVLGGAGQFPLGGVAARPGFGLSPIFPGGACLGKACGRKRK
# [2] = Tissue rigidity assay (forceps test), healthy mouse aortic tissue ex vivo; set-up: species or system mice; conditions: MB PDT ex vivo
# Protocol: (§1) (FIG. 7A). The stiffness maximized at 120 mins exposure for mouse tissue. […] To assess if this benefit of MB PDT on mechanical strength is true in a pathological setting, MB PDT treatment was done of on mouse aneurysms in vivo and the stiffness was assessed ex vivo (FIG. 7C).
# (§2) Mouse aneurysms and aortic tissue were treated with MB PDT and vehicle in vivo and ex vivo.
# [3] = Tissue rigidity assay, porcine aorta ex vivo
# [4] = system: total elastin in porcine tissue; experiment: CML modification levels of total elastin in porcine tissue; conditions: MB PDT vs untreated samples and pentagalloyl glucose; less than glutaraldehyde
# established AAAs = experiment: MB PDT on pre-established and progressive aneurysms 21 days after induction surgery; type: in vivo, mice
# Protocol: The photosensitizer dye methylene blue (M291-100) was used for photodynamic therapy treatment (MB-PDT). MB-PDT was applied at two time points during the experiment. To test the effect of MB-PDT on AAA formation, MB-PDT was done directly after the PPE saline wash (PODO). To investigate the effect of MB-PDT on AAA growth, Laparotomy and MB-PDT was performed 21 days postoperatively, covering the whole aneurysm (POD21). MB-PDT involves applying 10 ul of 10:1 MB Solution in DPBS (M291-100:21-030-CV) topically to the whole aneurysm, which was carefully dissected from surrounding tissue. Gauze was placed on either side of the aneurysm to absorb excess MB. The aneurysm was then irradiated for 25 min at an irradiance of 30 mW/cm^2 and fluence of 45 J/cm^2 (660 nm LED, Thor M660L4). Throughout the course of irradiation, 5 ul of MB was applied to the aneurysm every 2.5 min to prevent the tissue from drying out. After irradiation, the MB was washed with two changes of sterile saline. For the MB only group, the total amount of MB was applied topically to the aneurysm for five minutes and washed. For the light only group, the aneurysm was irradiated for 25 min, with 5 ul of sterile saline applied every 2.5 min to prevent tissue desiccation. For POD21 positive controls, a laparotomy was performed with no additional treatment.
# Aneurysm size was tracked by weekly ultrasound surveillance.
# In certain instances, AAA often goes undiagnosed or is diagnosed late, thus it is important to know if MB PDT can not only prevent AAA formation but also reduce or arrest progressive aneurysm growth. To evaluate the efficacy of MB PDT to inhibit the progression of AAA, MB PDT was administered to mice with pre-established and progressive aneurysms 21 days after the initial aneurysm induction surgery with elastase. […] Similar to the measurements done in the study of MB PDT upon AAA induction in FIG. 1, the maximum aortic diameters were measured using ultrasound, averaging anterior-posterior (AP) and transverse (TRV) dimensions for accuracy. […]
# IL-1B, IL-6 and IL-10 = experiment: Serum cytokine ELISAs after MB PDT; type: in vivo, mice; conditions: MB PDT vs controls
# Source text: The formation and progression of AAA can be characterized by the degradation of the extracellular matrix (ECM) and the concurrent infiltration of immune cells into the aortic wall. To assess if MB PDT affects the extracellular matrix (ECM) of the aortic aneurysms, cross-sections of the aneurysms of the above mice which have undergone AAA induction and concurrently treated with MB PDT and the respective controls were stained with Verhoeff-Van Gieson (VVG) for elastin, Massons Trichrome for collagen and CD3 antibody for T-cells and CD68 antibody for macrophages for immune cell infiltration (FIG. 2A). […] Similarly, a compensatory effect of collagen expression into the elastin layer was observed (pointed by arrows) after PDT treatment compared to both vehicle-treated positive controls and sham controls. […] To assess if T-cells and macrophage infiltration is modulated in aneurysms upon treatment with MB PDT, the aneurysm cross-sections were stained for CD3 and CD68, markers for T-cells and macrophages, respectively. CD3 and CD68 staining were reduced after MB PDT treatment compared to vehicle treated controls (FIG. 2A). […] To assess if this benefit on elastin degradation and immune cell infiltration was due to any systemic decrease in circulating cytokine levels known to be associated with aneurysm growth, cytokines such as IL-1B, IL-6 and IL-10, serum cytokine levels were measured. […]
# mouse aneurysms = experiment: Tissue rigidity assay, mouse aneurysms treated in vivo, stiffness assessed ex vivo; conditions: post-MB PDT in vivo vs vehicle treatment controls
# Protocol: as §1, §2
# [5] = Ex vivo elastase degradation assay with VVG staining; set-up: species or system pigs; conditions: MB PDT 20 min irradiance of 150 mW/cm^2, before recombinant elastase; vs Veh only
# Protocol: Human and porcine aorta were thawed from −80 C to RT. Tissue was then cut into ~1 cm×1 cm squares and briefly rinsed with HBSS. Tissues were then split into two groups: control and PDT. Control tissues were kept in HBSS at RT for one hour, and treated tissues were subjected to 150 mW NIR light for 20 mins in 100 μg/ml methylene blue, with the lumen side facing the light. Then each group was further split into two groups, no elastase and elastase treatment. Treatment involved a 2 hour incubation at 37 C in 10% Porcine Pancreatic Elastase (E1250-25 MG). After treatment all tissues were briefly rinsed, dried on a paper towel, and frozen in OCT. Tissue was sectioned at 10 μm by cryotome for the cross-section and stained using Van Gieson (Statlab KTVELLT). Images were taken at 20× and 100× on a Keyence BZ-X700 Fluorescence Microscope.
# To assess if MB PDT can protect aortic tissue from elastase-induce extracellular matrix degradation, aortic tissue were procured from pigs and subjected to MB PDT (20 min irradiance of 150 mW/cm^2) or Veh only treatment ex vivo before recombinant elastase treatment. Comparative analysis of the cross-sections of these tissues were sought to ascertain the consistency of PDT's protective effects across different biological species. […]
# [6] = after MB PDT vs vehicle treated controls
smiles,measurement,setting,value
"CN(C)c1ccc2nc3ccc(N(C)C)cc3[s+]c2c1 [MB, methylene blue]","elastin degradation, clinical scoring by blinded investigators",[1]; MB PDT treated group,trend towards improvement
same,CD3 staining (T-cells),[1]; [6],reduced
same,CD68 staining (macrophages),[1]; [6],reduced
same,elastin degradation (VVG staining),[1]; [6],reduction of elastin degradation
same,collagen degradation in the adventitia (Massons Trichrome),[1]; after PDT vs vehicle treated controls and sham mice,less collagen degradation
same,CML levels,Recombinant Tropoelastin,significant increase
same,light exposure at which stiffness maximized,[2],120 min
same,vascular stiffness (forceps test),[2],increased with duration of light exposure
same,stiffness benefit in porcine aorta,"[3]; MB PDT, exposure requirement higher, visually less striking",consistent
same,degradation on incubation with recombinant elastase,"[3]; porcine aorta after MB PDT, more resistance at higher light intensity (60 mW versus 120 mW)",resistant to degradation
same,CML modification levels,[4],significant increase
same,aneurysm diameter on week 9,"established AAAs; MB PDT on day 21, vs vehicle treated group",decrease
same,enlargement of established AAAs (weekly ultrasound),"established AAAs; MB PDT on day 21 post-induction, vs vehicle-treated controls",significantly reduced
same,morphological images and micrometric measurements of AAAs,established AAAs; treated vs vehicle,marked differences
same,"serum cytokine levels (IL-1B, IL-6, IL-10)","IL-1B, IL-6 and IL-10",No significant differences
same,stiffness of the aneurysm,mouse aneurysms,clear improvement
same,resistance to elastase-induced ECM degradation (VVG elastin staining),[5],significant resistance
